Like-named read-outs stand apart in the source and are kept apart here.
Experiments:
D2S receptor = target: T1, D2S receptor (Homo sapiens, UniProt P14416); experiment: D2S receptor cAMP agonist test; assay type: cell-based; details: HEK293 cell strain stably expressing D2S receptor; for EC50: cAMP, forskolin 5×10^−7 M; for D2S Max Act %: positive control dopamine 1×10^−7 M
T1 construct: expressed in transfected cells
Description: (§1) cAMP detection kit was purchased from Cisbio; an HEK293 cell strain stably expressing D2S receptor was constructed by Shanghai Shujing Biopharma Co., Ltd.; dopamine, forskolin, and IBMX were purchased from Sigma; ProxiPlate-384 well plates were purchased from PerkinElmer; HBSS was purchased from Thermo Fisher Scientific.
(§2) • (1) The cultured cells were digested with trypsin, and the cell suspension was washed with HBSS buffer after the digestion was terminated. The medium was removed by centrifugation at 200×g. The pellet was resuspended in an appropriate amount of experimental buffer, and 20 μL of cell suspension was counted using a cell counter and diluted to 0.6×10^6 cells/mL. • (2) 5 μL of cell suspension was added to a ProxiPlate-384 well plate (3×10^3 cells/well). • (3) Test compounds were serially diluted in an experimental buffer, and 5 μL of the mixed solution was transferred to the reaction plate with Bravo.

5-HT1A receptor = target: T2, 5-HT1A receptor (Homo sapiens, UniProt P08908); experiment: 5-HT1A receptor cAMP agonist test; assay type: cell-based; details: HEK293 cell strain stably expressing 5-HT1A receptor; for EC50: cAMP, forskolin 2.5×10^−7 M; for 5-HT1A Max Act %: positive control serotonin 10^−6 M
T2 construct: expressed in transfected cells
T2 sequence (P08908 1-422): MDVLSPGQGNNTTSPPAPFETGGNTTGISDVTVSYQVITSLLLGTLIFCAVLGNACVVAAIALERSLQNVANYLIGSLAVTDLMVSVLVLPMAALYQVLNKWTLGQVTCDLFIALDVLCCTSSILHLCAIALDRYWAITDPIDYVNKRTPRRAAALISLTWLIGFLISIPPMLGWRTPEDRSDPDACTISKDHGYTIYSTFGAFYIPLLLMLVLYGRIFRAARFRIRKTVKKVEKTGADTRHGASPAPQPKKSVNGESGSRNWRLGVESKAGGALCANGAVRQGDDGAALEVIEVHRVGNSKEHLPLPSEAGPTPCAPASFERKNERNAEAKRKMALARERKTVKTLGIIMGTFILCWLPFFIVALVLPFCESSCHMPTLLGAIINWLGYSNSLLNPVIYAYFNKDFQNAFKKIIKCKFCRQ
Description: as §1, with “• cAMP” for “cAMP”, “5-HT1A” for “D2S”, “serotonin,” for “dopamine,”
as §2, with “0.4×10^6” for “0.6×10^6”, “(2×10^3” for “(3×10^3”

5-HT2A receptor = 5-HT2A receptor (Homo sapiens, UniProt P28223); experiment: Calcium flux test for 5-HT2A receptor; assay type: cell-based; details: CHO cell strain stably expressing 5-HT2A receptor; for IC50: calcium flux, antagonism of serotonin; for 5-HT2A Max Inh %: positive control ketanserin 10^−7 M
Procedure: • Fluo-4 calcium flux detection kit was purchased from Invitrogen; a CHO cell strain stably expressing 5-HT2A receptor was purchased from PerkinElmer; serotonin was purchased from Sigma; ketanserin was purchased from Targetmol; polylysine-coated 384-well plates and 384-well compound plates were purchased from Greiner Bio-One. Molecular Device FLIPR, Agilent Bravo liquid workstation, and Countstar BioTech cell counter.
• (1) The cryopreserved cells were rapidly thawed in a water bath at 37° C., and the cells were resuspended in a plating medium. The cryopreservation solution was removed by centrifugation at 200×g. The pellet was resuspended in an appropriate amount of plating medium, 20 μL of cell suspension was counted using a cell counter, and the cell density was diluted to 1×10^6 cells/mL. • (2) 20 μL of cell suspension was added to a polylysine-coated 384-well plate (2×10^4 cells/well). • (3) The cell plate was incubated in a 37° C./5% CO2 incubator for 16-20 h.
• (1) The cell plate was taken out from the incubator and centrifuged at 100×g to remove the medium. 20 μL of experimental buffer was added, and then 20 μL of 2× fluorescent probe solution was added. […] The cell plate and agonist positive compound plate were placed into the FLIPR instrument, the detection program was run, 10 μL of the diluted compound was transferred from the agonist compound plate to the cell plate, and the fluorescence signal was read. […] The cell plate and test compound plate were placed in the FLIPR instrument, the detection program was run, and 10 μL of the diluted compound was transferred from the test compound plate to the cell plate. […] The test compound plate was then taken out, and the agonist positive compound plate with 6×EC50 concentration was placed.
Inhibition rate (Inhibition %)=(negative control reading value−compound reading value)/(negative control reading value−positive control reading value)×100%

D2L receptor = target: T3, D2L receptor (Homo sapiens, UniProt P14416); experiment: D2L receptor cAMP agonist test; assay type: cell-based; details: HEK293 cell strain stably expressing D2L receptor; for EC50: cAMP, forskolin 0.5 μM; for D2L Max Act %: positive control dopamine 1 μM
T3 construct: expressed in transfected cells
Procedure: as §1, with “• cAMP” for “cAMP”, “D2L” for “D2S”
• (1) The cryopreserved cells were thawed in a water bath at 37° C., the cell suspension was resuspended in HBSS buffer, and the mixed solution was centrifuged at 750 rpm for 5 min to remove the medium. The pellet was resuspended in an appropriate amount of experimental buffer, and an appropriate amount of cell suspension was diluted to 0.4×10^6 cells/mL. • (2) 5 μL of cell suspension was added to a ProxiPlate-384 well plate (2×10^3 cells/well), and the plate was centrifuged at 1000 rpm for 1 min. • (3) Test compounds were serially diluted in an experimental buffer, and 5 μL of the mixed solution was transferred to the reaction plate with Bravo.

[1] = Pharmacokinetic test in mice; assay type: in vivo; details: plasma, oral intragastric
Procedure: Male ICR mice were administered orally intragastrically, the plasma concentrations of the compounds of the present invention were measured in the mice, the PK parameters were calculated, and the pharmacokinetic evaluation was performed on the compounds of the present invention.
• (1) Test samples: the compounds of the examples of the present invention, self-made. • (2) Test animals: ICR mice, SPF grade, male, Xuzhou Medical University. • (3) Main test instruments:
Drug preparation: according to the weight of the weighed drug, the preparation volume was calculated. 5% of DMSO was added firstly. After the drug was fully dissolved, 95% of 20% aqueous PB-cyclodextrin solution was then added, and the mixture was mixed well for later use.
Administration route: oral intragastric administration. Frequency and duration of administration: single administration.
ICR mice were stratified according to body weight and then randomly divided into groups of 9 mice each, and the mice were fasted overnight prior to the test. The mice were separately administered orally intragastrically. 50 μL of blood was collected from the fundus vein of the mouse at 0 h, 0.083 h, 0.25 h, 0.5 h, 1 h, 2 h, 4 h, 8 h, 12 h, and 24 h (3 time points for each mouse) to a sample tube containing heparin sodium as an anticoagulant, and the tube was placed in wet ice and centrifuged at 4000 r·min^−1 for 10 min. The plasma was separated, and cryopreserved in a refrigerator at −80° C. for testing.
The concentrations of plasma samples were measured by high performance liquid chromatography-tandem mass spectrometry (LC-MS/MS). The retention times of the compounds and internal standard, chromatogram acquisitions, and integrals of chromatograms were processed using the software Analyst (AB SCIEX), and the data statistics were processed using the software Watson LIMS (Thermo Fisher Scientific) or Analyst (AB SCIEX). The concentration of plasma was processed using a non-compartmental model of the pharmacokinetic software WinNonlin™ Version 6.3 (Pharsight, Mountain View, CA), and pharmacokinetic parameters were calculated by a linear log-trapezoidal method.

[2] = male, ICR, mouse, po, 5 mg/kg, single dose 5 mg/kg
[3] = male, ICR, mouse, po, 5 mg/kg, single dose 5 mg/kg, read-out: AUC(0-inf)
[4] = male, ICR, mouse, po, 5 mg/kg, single dose 5 mg/kg, read-out: Cmax
[5] = male ICR mice, single dose 5 mg/kg, 5 mg/kg

T3 sequence (P14416 whole entry): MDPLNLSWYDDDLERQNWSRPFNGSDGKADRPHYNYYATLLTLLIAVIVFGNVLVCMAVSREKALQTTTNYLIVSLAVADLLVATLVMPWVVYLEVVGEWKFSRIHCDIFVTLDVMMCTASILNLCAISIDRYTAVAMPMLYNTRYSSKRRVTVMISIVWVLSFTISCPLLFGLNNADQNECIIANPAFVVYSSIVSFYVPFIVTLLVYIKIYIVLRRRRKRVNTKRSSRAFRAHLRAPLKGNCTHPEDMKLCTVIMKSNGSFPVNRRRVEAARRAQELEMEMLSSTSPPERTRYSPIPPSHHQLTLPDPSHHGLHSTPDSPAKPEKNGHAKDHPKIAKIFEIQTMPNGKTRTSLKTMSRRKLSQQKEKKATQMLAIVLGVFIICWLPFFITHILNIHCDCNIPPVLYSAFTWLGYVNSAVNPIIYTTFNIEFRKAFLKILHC
T1 sequence (P14416 1-414 isoform P14416-2): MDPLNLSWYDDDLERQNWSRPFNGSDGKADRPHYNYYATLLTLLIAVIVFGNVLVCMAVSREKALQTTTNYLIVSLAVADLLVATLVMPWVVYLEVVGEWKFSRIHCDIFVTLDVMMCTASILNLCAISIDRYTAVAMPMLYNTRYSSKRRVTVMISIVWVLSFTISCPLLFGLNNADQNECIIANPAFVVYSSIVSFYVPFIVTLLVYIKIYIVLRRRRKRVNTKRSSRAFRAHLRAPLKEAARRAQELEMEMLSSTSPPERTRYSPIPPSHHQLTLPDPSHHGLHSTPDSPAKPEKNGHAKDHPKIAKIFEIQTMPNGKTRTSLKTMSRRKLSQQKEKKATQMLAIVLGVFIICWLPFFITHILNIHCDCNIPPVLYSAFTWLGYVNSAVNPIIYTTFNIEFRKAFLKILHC
Chain of 5-HT2A receptor (P28223 whole entry): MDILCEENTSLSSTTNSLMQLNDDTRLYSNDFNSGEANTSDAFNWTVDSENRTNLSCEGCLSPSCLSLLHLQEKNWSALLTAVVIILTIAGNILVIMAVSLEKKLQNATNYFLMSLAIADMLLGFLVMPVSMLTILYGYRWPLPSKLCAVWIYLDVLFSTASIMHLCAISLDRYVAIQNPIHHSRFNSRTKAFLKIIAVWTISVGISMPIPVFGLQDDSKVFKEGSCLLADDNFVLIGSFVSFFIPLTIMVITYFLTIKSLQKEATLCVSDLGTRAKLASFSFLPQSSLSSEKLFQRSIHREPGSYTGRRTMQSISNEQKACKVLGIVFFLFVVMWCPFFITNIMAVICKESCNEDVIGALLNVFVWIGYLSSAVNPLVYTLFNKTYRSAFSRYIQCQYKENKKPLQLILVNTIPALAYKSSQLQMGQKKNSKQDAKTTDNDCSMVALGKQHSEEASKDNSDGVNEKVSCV

SMILES | EC50 (D2S receptor) [nM] | D2S Max Act % (D2S receptor) [%] | EC50 (5-HT1A receptor) [nM] | 5-HT1A Max Act % (5-HT1A receptor) [%] | IC50 (5-HT2A receptor) [nM] | 5-HT2A Max Inh % (5-HT2A receptor) [%] | EC50 (D2L receptor) [nM] | D2L Max Act % (D2L receptor) [%] | half-life [1, 2] [h] | AUC(0-inf) [1, 3] [ng·h/mL] | Cmax [1, 4] [ng/mL] | half-life ([1]; male, ICR, mouse, po, 3 mg/kg, single dose 3 mg/kg) [h] | AUC(0-inf) ([1]; male, ICR, mouse, po, 3 mg/kg, single dose 3 mg/kg, read-out: AUC(0-inf)) [ng·h/mL] | Cmax ([1]; male, ICR, mouse, po, 3 mg/kg, single dose 3 mg/kg, read-out: Cmax) [ng/mL] | AUC(0-inf) [1, 5] [ng·h/mL] | Cmax [1, 5] [ng/mL] | t1/2 [1, 5] [h]
O=C1Nc2cc(OCCCCN3CCN(c4cccc5c4OC(F)(F)O5)CC3)ccc2C2CC12 (centres unmarked) [Example 41, 5-(4-(4-(2,2-Difluorobenzo[d][1,3]dioxolan-4-yl)piperazin-1-yl)butoxy)-1,1a,3,7b-tetrahydro-2H-cyclopropa[c]quinolin-2-one] | 0.92 | 115.0 | 50.8 | 92.7 | 3350 | 80.4 | 0.97 | 42.4 | 8.6 | 9970 | 971 | – | – | – | – | – | –
O=C1Nc2cc(OCCCCN3CCN(c4cccc5sc(Cl)cc45)CC3)ccc2C2CC12 (centres unmarked) [Example 49, 5-(4-(4-(2-Chlorobenzo[b]thiophen-4-yl)piperazin-1-yl)butoxy)-1,1a,3,7b-tetrahydro-2H-cyclopropa[c]quinolin-2-one] | 0.99 | 112.6 | 128 | 80.7 | 7400 | 90.4 | 0.91 | 56.3 | – | – | – | 10.5 | 4780 | 420 | – | – | –
O=C1Nc2cc(OCCCCN3CCN(c4cccc5sccc45)CC3)ccc2C2CC12 (single isomer, unassigned) [Example 42-P2] | 0.93 | 99.2 | 693 | 45.5 | 497 | 97.3 | 0.43 | 32.6 | – | – | – | – | – | – | 11157.8 | 1296.7 | 5.8
O=C1Nc2cc(OCCCCN3CCN(c4cccc5sccc45)CC3)ccc2C2CC12 (centres unmarked) [Example 42, 5-(4-(4-(Benzo[b]thiophen-4-yl)piperazin-1-yl)butoxy)-1,1a,3,7b-tetrahydro-2H-cyclopropa[c]quinolin-2-one] | 0.95 | 106.0 | 313 | 55.7 | 1690 | 100.6 | 0.47 | 32.7 | 13 | 11300 | 687 | – | – | – | – | – | –
